The numbers were not newly measured in patent US9309575B2, “Mutant strains of Escherichia coli, a method of testing potential antibacterial agents using said strains as well as a testing kit” (Instytut Biologii Doswiadczalnej IM. M. Nenckiego Pan, priority 2010, dated 2016), which cites them from elsewhere.

The data set concerns gram-negative bacteria. The conditions noted are these: at concentrations of 1-10 μg/ml.

As to polymyxin B nonapeptide [PMBN], the biocidal properties entry is “does not exhibit biocidal properties”.
